Results from patent US5783179A, “C-reactive protein fragment with immunomodulatory activity” (Syntex (U.S.A.) Inc., priority 1991, dated 1998).

System: T241 fibrosarcoma lung metastases
Experiment: Mouse T241 fibrosarcoma model: evaluation of lung metastases after amputation of the tumor-bearing foot
Format: in vivo, male C57BL/6 mice
Details: Day 35, soluble CRP-peptide 1.25 μg per dose
Description: The CRP-peptide was assayed for activity in the mouse T241 fibrosarcoma model, whereby the ability to block lung metastasis formation is measured.
The procedures have been described in detail previously (Deodhar, et al, Cancer Res 42:5084-5088, 1982). Suspensions of 5×10^5 viable T241 fibrosarcoma cells in 0.1 ml of Hanks's balanced salt solution were injected subcutaneously into the dorsum of one hind foot of ten male C57BL/6 mice (Jackson Laboratories, Bar Harbor, Me.) per experiment. Seventeen days after tumor implantation, the tumor-bearing foot was amputated below the knee. The mean tumor weight at this stage was 152 ±58 (S.E.M.) mg. The tumor weight was determined by subtracting the weight of an amputated normal foot from that of a tumor-bearing foot. Previous studies have shown that T241 fibrosarcoma starts seeding the lung parenchyma by Day 10 after foot tumor implantation; by Day 17, virtually all animals have lung macro- and/or micrometastases. The animals were then randomized into control and experimental groups, and appropriate therapy was started after amputation of the tumor-bearing foot.
Treatments consisted of intravenous (orbital sinus) injections of liposomes containing CRP, liposomal CRP-peptide of Example 2, or liposomal CRP-peptide of Example 2 plus intraperitoneal injections of non-encapsulated soluble recombinant interleukin-2 (Cetus Corp., Emeryville, Calif.), or non-encapsulated interleukin-2 (IL-2) alone, whereas the control groups received either no treatment, liposomes containing buffer medium alone, or liposomes containing buffer medium plus non-encapsulated CRP peptide. […] On Day 35 of the experiment, all animals were killed, and the lungs were evaluated for number and size of metastases.
Tumor metastases could be clearly recognized as raised, hemorrhagic, opaque, and dense nodules, distinguishable from the smooth, glistening, spongy, and pink normal lung parenchyma. […] To obtain an approximate assessment of the total metastatic tumor burden in the lungs, the "metastatic index", reflecting both number and size of metastases, was calculated as follows. […]

H-IYLGGPFSPNVL-OH [Soluble CRP-peptide]
No. of Metastatic Foci (+ SEM) (MLV: 0.25 μg CRP or CRP-peptide i.v. 3x per week for 2 weeks): 12.9 ± 2.9 | No. Animals with Lung Metastases (MLV: 2.5 μmols lipid containing 0.25 μg CRP or CRP-peptide i.v. 3x per week for 2 weeks): 10/10 | Metastatic Index (+ SEM) (mean of group, MLV: 0.25 μg CRP or CRP-peptide i.v. 3x per week for 2 weeks): 49.7 ± 10.1
